Test results published in US10822376B2, “Biologically active peptides” (Baxalta Incorporated, priority 2008, dated 2020).
Converted amounts (≈) assume the structure as drawn. *1 amine or outer side, *2 acyl side, *3 side chain or, on linkers, in order; H or OH if unused. Where a SMILES comes first, the peptide text is derived from it. Where no end group is shown, it is not given here. [ ]: non-standard residue; d: D form. The star is where a group is joined. NH(CH2)3(OCH2CH2)2O(CH2)3NH = C(CN[*:1])COCCOCCOCCCN[*:2]; X1 = NC(=O)CCC(=O)NCCCOCCOCCOCCCN*; Suc = O=C(CCC(=O)[*:2])[*:1]

Key:
[1] = system: Factor VIII deficient human plasma; experiment: DDPTGA (reagent B) in FVIII depleted plasma; format: biochemical; conditions: compounds at 50 μM and 80, 90 or 100 μM; note: key: '+' means stimulates; '−' means does not stimulate
Text: (§1) Preferably, Reagent C high is used.

Plasma stability = conditions: human
Method: Half-life of compounds in human or mouse plasma, or percentage of compound remaining after an incubation in human or mouse plasma, is determined as follows. In the experimental procedure, test compound concentrations are 5 μM, prepared from test compound stock solutions of 10 mM in DMSO. Propantheline is used as a standard. […] All of the samples are incubated in a water bath at 37° C. […] After a chosen duration of incubation (generally at t=60 min) each sample is mixed with a further 500 μl acetonitrile. The samples are mixed on a vortex mixer for 30 s and placed on ice for 10 min and collected for centrifugation. Samples are centrifuged at 20 000 g for 10 min at 4° C. 500 μl supernatant is transferred into a new 1.5 ml Eppendorf tube and an equal volume of acetonitrile is added. The sample is mixed again for 30 s using a vortex mixer. After a second centrifugation step (20 000 g, 10 min, 4° C.) 250 μl of the supernatant is transferred into HPLC glass vials for HPLC-MS analysis. Conditions for performing HPLC are as follows: Injection-volume is set to 20 μl. Temperature is set to 25° C. A linear gradient from 95:5 to 5:95 water:acetonitrile both containing 0:05% trifluoroacetic acid (TFA) (v/v) is applied at a flow rate of 0.3 ml/min for 10 min. The PDA-detector is scanning from 210-400 nm.

[2] = system: human FVIII inhibited plasma; experiment: Defined Intrinsic Thrombin Generation Assay (DITGA, triggered by FXIa and phospholipids); format: biochemical; conditions: for Activity in the Defined Intrinsic Thrombin Generation Assay: summary
Text: (§2) The intrinsic pathway of thrombin generation may be assayed in a thrombin generation assay by including FXIa and phospholipids. In such an assay, which is similar to an activated partial thromboplastin time (aPTT) test, thrombin generation is solely directed through the intrinsic pathway, and is FVIII dependent. A suitable assay is the Defined Intrinsic Thrombin Generation Assay described below. Alternatively, by employing low concentrations of TF and phospholipids instead of FXIa and phospholipids, thrombin is generated by both the extrinsic (tissue factor) and the intrinsic pathways. This form of the thrombin generation assay is the more physiologic one, as both thrombin generation pathways are involved; it is partially FVIII dependent. A suitable assay is the Defined Dual-Pathway Thrombin Generation Assay.
The Defined Intrinsic Thrombin Generation Assay is performed as follows. FVIII activity of human plasma is inhibited by incubating (2 hours, 37° C.) 40 μl of human normal plasma with 10 μl heat inactivated anti-human FVIII plasma raised in goat (600 BU/ml, 6 hours incubated at 56° C.). […] Instead of FVIII-inhibited plasma, FVIII inhibitor patient plasma or several depleted plasmas can be used. The micro-plate is immediately put into a GENios Plus (Tecan) or Safire 2 (Tecan) fluorescence reader and the fluorescence signal (ex 340 nm/em 440 nm) is followed kinetically by reading the plate every 21 seconds.
For calculation of activity equivalent units experiments are performed with dilutions of Factor Eight Inhibitor Bypassing Agent (FEIBA, Baxter AG), Immunate (human FVIII, purified plasma derived) reference standard (Baxter AG) or Recombinate standard (human FVIII, purified recombinant, Baxter AG). A linear fit of the logarithm of FEIBA (FVIII) concentration plotted against thrombin generation time at peak thrombin results in a standard curve. With this curve FEIBA (FVIII) equivalent activity is calculated for a defined peptide concentration. […] Thus, where a concentration of 100 μM is given, the actual concentration in the final assay volume in 40 μM.
Compounds were screened using the “Defined intrinsic thrombin generation assay” in which thrombin generation was quantified in vitro in FVIII-inhibited human plasma in the presence of Factor XIa and phospholipid vesicles. Further compounds were screened in the above assay, and in the “Defined dual-pathway thrombin generation assay” using tissue factor and phospholipids instead of Factor XIa and phospholipids, as described in the specific description.
Various concentrations of each peptide were tested in the defined intrinsic thrombin generation assay using human FVIII inhibited plasma.

physchem = conditions: pH 7.4
Method: (§5) Aqueous solubility is measured in PBS at pH 7.4 either in an assay provided by Cerep (France, Catalog ref. 900-11a) or according to the following protocol. The aim of this procedure is to determine the solubility of a drug candidate (analyte) in a buffer, by estimating the saturation concentration of the candidate in the buffer using HPLC. A known concentration of the candidate in an organic solvent is used as a standard. A stock solution of the test compound in DMSO must be prepared as the initial step. […] DMSO stock-solutions are diluted to a final concentration of 50 μM with DMSO (100% reference-solution) and buffer (test-solution) to provide a minimum volume of 500 μL of each. Both solutions are shaken at 25° C. at 950 rpm in an Eppendorf “thermomixer comfort” for at least 60 min. The suspension is centrifuged at 22 330 g for at least two min and 100 μL of the supernatant is transferred into polypropylene-inserts placed in glass vials and closed by snap-ring caps. Alternatively the solutions can be prepared in microtiter plates with half of the previously described starting solvent volume. For the determination of the solubility all samples are analyzed by HPLC in triplicate. Injection volume is at least 10 μL. The obtained data are analyzed by “Chemstation-software” (Agilent, Waldbronn, Germany). The peaks from the analyses of the organic solutions are integrated and the arithmetic mean is reported as “AUC 1” (reference area of known amount injected at the HPLC). […] The ratio of the mean “AUC 2” and “AUC 1” is calculated and thus the percentage of the dissolved amount of compound in buffer is obtained and solubility can be reported in μM.

FVIII deficient plasma = experiment: Defined Dual-Pathway Thrombin Generation Assay (DDPTGA, reagent C high), FVIII deficient plasma; format: biochemical, human; conditions: FVIII deficient plasma
Text: as §2, §1
(§3) Tissue factor dependency of peak thrombin generation and thrombin peak time was characterised in a composition containing a fixed concentration of phospholipid (namely 3.2 μM). Phospholipid dependency was characterised in a composition containing a fixed concentration of tissue factor (namely 7.2 μM). Peak time (time to peak thrombin generation) was dependent on the concentration of phospholipid or tissue factor. The final version of this assay is as described in the specific description, in which 10 μl reagent C high containing (32 μM phospholipid and 71.6 μM tissue factor) is used in a total volume of 100 μl.
(§4) Further studies were conducted using 3.2 μM phospholipid and 7.2 μM tissue factor in FVIII deficient or inhibited plasma, to characterise the effect on peak thrombin generation and thrombin peak time of various coagulation factor preparations. These studies provided a basis from which to compare the efficacy of the compounds in the assay. Briefly, rFVIII (Recombinate® FVIII from Baxter) was tested at 0, 5, 10, 20, 40 and 80 mU/ml in FVIII deficient plasma. FEIBA was tested at 0, 8, 16, 31, 63 and 125 mU/ml in FVIII inhibited plasma. FVIIa was tested at 0, 0.1, 0.4, 1.6, 6.3 and 25 nM in FVIII inhibited plasma. […] Peak thrombin increased and both the lag time and the thrombin peak time decrease.

FVIII inhibited plasma = experiment: Defined Dual-Pathway Thrombin Generation Assay (DDPTGA, reagent C high), FVIII inhibited plasma; format: biochemical, human; conditions: for Peak IIa FEIBA EU / Peak IIa FVIIa EU / Peak Time FEIBA EU / Peak Time FVIIa EU: FVIII inhibited plasma; for Activity in the Defined Dual-Pathway Thrombin Generation Assay: summary, FVIII inhibited or deficient plasma
Text: as §2, §1, §3, §4

in vitro [3] = conditions: human, pH 7.4
in vitro [4] = conditions: mouse, pH 7.4
[5] = pH 7.4
Method: as §5

HERG channel = HERG channel (Homo sapiens, UniProt Q12809); experiment: HERG inhibition, patch clamp assay
Method: QT prolongation is assessed by HERG inhibition measured by patch-clamp techniques or Rb^+ efflux.
For rigorous characterization of HERG inhibition the patch clamp assay is applied (Cerep, France, Catalog ref. 900-36). […] The test compounds (10 mM stock solutions) were dissolved in dimethylsulfoxide (DMSO). The solutions at 1 μM contained 0.01% DMSO.

Chain of HERG channel (Q12809 whole entry): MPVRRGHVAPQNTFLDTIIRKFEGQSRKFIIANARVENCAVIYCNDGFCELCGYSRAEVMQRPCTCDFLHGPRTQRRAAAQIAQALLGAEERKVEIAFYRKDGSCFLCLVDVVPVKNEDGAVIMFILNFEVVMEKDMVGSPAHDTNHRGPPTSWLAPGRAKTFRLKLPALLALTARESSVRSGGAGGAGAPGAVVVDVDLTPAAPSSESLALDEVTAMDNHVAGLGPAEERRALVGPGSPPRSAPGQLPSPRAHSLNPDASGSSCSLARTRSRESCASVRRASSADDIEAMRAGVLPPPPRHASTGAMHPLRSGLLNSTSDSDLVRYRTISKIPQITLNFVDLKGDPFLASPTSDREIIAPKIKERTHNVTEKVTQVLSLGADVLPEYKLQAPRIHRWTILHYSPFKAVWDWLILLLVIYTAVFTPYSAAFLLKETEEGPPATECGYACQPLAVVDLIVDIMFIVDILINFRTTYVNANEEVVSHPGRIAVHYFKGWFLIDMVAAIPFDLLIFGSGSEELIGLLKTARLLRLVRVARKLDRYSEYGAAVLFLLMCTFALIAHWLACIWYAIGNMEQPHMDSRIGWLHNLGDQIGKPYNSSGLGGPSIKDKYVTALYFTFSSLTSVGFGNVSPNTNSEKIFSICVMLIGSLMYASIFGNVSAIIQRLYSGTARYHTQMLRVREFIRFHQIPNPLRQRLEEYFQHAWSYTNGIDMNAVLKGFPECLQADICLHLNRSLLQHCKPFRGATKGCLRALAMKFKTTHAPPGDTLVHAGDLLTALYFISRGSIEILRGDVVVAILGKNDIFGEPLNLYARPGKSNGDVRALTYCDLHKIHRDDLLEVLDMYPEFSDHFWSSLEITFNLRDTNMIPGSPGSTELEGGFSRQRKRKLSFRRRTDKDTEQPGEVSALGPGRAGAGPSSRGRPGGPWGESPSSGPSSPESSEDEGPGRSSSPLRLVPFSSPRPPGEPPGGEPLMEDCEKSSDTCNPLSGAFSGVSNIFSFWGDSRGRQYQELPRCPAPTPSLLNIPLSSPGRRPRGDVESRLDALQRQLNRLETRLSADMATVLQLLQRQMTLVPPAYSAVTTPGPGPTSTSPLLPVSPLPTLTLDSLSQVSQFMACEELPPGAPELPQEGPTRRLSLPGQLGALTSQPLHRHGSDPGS

Compound | remaining at 0.5 h, 5 μM (Plasma stability) | Thrombin peak time given as FEIBA equivalent activity ([2]; peptide 6.25 μM) | Thrombin peak time given as FEIBA equivalent activity ([2]; peptide 12.5 μM) | Thrombin peak time given as FEIBA equivalent activity ([2]; peptide 25 μM) | Thrombin peak time given as FEIBA equivalent activity ([2]; peptide 50 μM) | Thrombin peak time given as FEIBA equivalent activity ([2]; peptide 100 μM) | Activity in the Defined Intrinsic Thrombin Generation Assay [2] | solubility kinetic (physchem) | Peak IIa FVIII EU (FVIII deficient plasma; peptide 50 μM) | Peak Time FVIII EU (FVIII deficient plasma; peptide 50 μM) | Peak IIa FEIBA EU (FVIII inhibited plasma; peptide 50 μM) | Peak IIa FVIIa EU (FVIII inhibited plasma; peptide 50 μM) | Peak Time FEIBA EU (FVIII inhibited plasma; peptide 50 μM) | Peak Time FVIIa EU (FVIII inhibited plasma; peptide 50 μM) | Activity in the Defined Dual-Pathway Thrombin Generation Assay (FVIII inhibited plasma) | Peak IIa FVIII EU (FVIII deficient plasma; peptide 100 μM) | Peak Time FVIII EU (FVIII deficient plasma; peptide 100 μM) | Peak IIa FEIBA EU (FVIII inhibited plasma; peptide 100 μM) | Peak IIa FVIIa EU (FVIII inhibited plasma; peptide 100 μM) | Peak Time FEIBA EU (FVIII inhibited plasma; peptide 100 μM) | also measured
CC[C@H](C)[C@H](NC(=O)[C@H](CCC(=O)O)NC(=O)[C@H](Cc1ccccc1)NC(=O)[C@H](Cc1ccc(O)cc1)NC(=O)[C@H](CC(C)C)NC(=O)[C@H](CC(=O)O)NC(=O)[C@H](Cc1c[nH]c2ccccc12)NC(=O)[C@@H](NC(=O)[C@H](CC(=O)O)NC(=O)[C@H](Cc1ccccc1)NC(=O)[C@H](CCC(=O)O)NC(=O)[C@H](CCSC)NC(=O)[C@H](CCCNC(=N)N)NC(=O)CCC(=O)NCCCOCCOCCOCCCN)C(C)C)C(=O)N[C@H](C(=O)N[C@@H](Cc1c[nH]c2ccccc12)C(=O)NCCCOCCOCCOCCCNC(=O)CCC(N)=O)C(C)C [Peptide A08] ({NH(CH2)3(OCH2CH2)2O(CH2)3NH-Suc}-RMEFDVWDLYFEIVW-X1) | 70% | 563 mU/ml | 656 mU/ml | 764 mU/ml | 958 mU/ml | 1213 mU/ml | possess activity | 11 µM (≈ 29.2 µg/mL) | BLS (BLS = below lowest standard.) | BLS (BLS = below lowest standard.) | BLS (BLS = below lowest standard.) | BLS (BLS = below lowest standard.) | 9.1 mU/ml | 0.4 nM | possess activity |  |  |  |  |  | Stimulation of thrombin generation [1]: +
CC[C@@H](C)[C@@H](NC(=O)[C@@H](CO)NC(C)=O)C(=O)N[C@H](CCSC)C(=O)N[C@H](Cc1ccccc1)C(=O)N[C@H](Cc1c[nH]c2ccccc12)C(=O)N[C@H](Cc1ccc(O)cc1)C(=O)N[C@H](CC(=O)O)C(=O)N[C@H](CCC(=O)O)C(=O)N[C@H](Cc1ccc(O)cc1)C(=O)N[C@H](CCC(=O)O)C(N)=O [Peptide B07, Ac-simfwydeye-NH2] (Ac-[dS][dI][dM][dF][dW][dY][dD][dE][dY][dE]-NH2) | 89% |  |  |  |  |  | possess activity | 195 µM (≈ 278 µg/mL) |  |  |  |  |  |  |  |  |  |  |  |  | 
CC(=O)CC(c1ccccc1)c1c(O)c2ccccc2oc1=O (stereo not shown) [Warfarin, warfarin] |  |  |  |  |  |  |  |  |  |  |  |  |  |  |  |  |  |  |  |  | recovery at 6 h, 10 μM (in vitro [3]): 99.3%; recovery at 6 h, 10 μM (in vitro [4]): 88.6%
Ac-RMDFDVWDLYFEIVW-NH2 [Peptide A03] | 92% | 477 mU/ml | 639 mU/ml | 762 mU/ml | 1069 mU/ml | 1396 mU/ml | possess activity | 110 µM | BLS (BLS = below lowest standard.) | BLS (BLS = below lowest standard.) | BLS (BLS = below lowest standard.) | BLS (BLS = below lowest standard.) | BLS (BLS = below lowest standard.) | BLS (BLS = below lowest standard.) | possess activity | BLS (BLS = below lowest standard.) | BLS (BLS = below lowest standard.) | BLS (BLS = below lowest standard.) | BLS (BLS = below lowest standard.) | BLS (BLS = below lowest standard.) | Peak Time FVIIa EU (FVIII inhibited plasma; peptide 100 μM): BLS (BLS = below lowest standard.)
Ac-VWDLYFEIVW-NH2 [Peptide A19] | 99% | 383 mU/ml | 495 mU/ml | 525 mU/ml | 663 mU/ml | 826 mU/ml | possess activity | 14 µM |  |  |  |  |  |  |  |  |  |  |  |  | 
PEG5000-RMKFDVWDLYFEIVW-NH2 [Peptide A16] |  |  |  |  |  |  |  |  | BLS (BLS = below lowest standard.) | BLS (BLS = below lowest standard.) | BLS (BLS = below lowest standard.) | BLS (BLS = below lowest standard.) | BLS (BLS = below lowest standard.) | BLS (BLS = below lowest standard.) |  | BLS (BLS = below lowest standard.) | BLS (BLS = below lowest standard.) | BLS (BLS = below lowest standard.) | BLS (BLS = below lowest standard.) | BLS (BLS = below lowest standard.) | Aqueous solubility [5]: 220 µM; Solubility in PBS [5]: >200 µM; Classification as HERG-channel blocker (potency ranking of Roche et al.) (HERG channel): low-potency; Peak Time FVIIa EU (FVIII inhibited plasma; peptide 100 μM): BLS (BLS = below lowest standard.)
PEG5000-WSLYFEIVWE [Peptide A17] |  |  |  |  |  |  |  |  | BLS (BLS = below lowest standard.) | 5.1 mU/ml | BLS (BLS = below lowest standard.) | BLS (BLS = below lowest standard.) | BLS (BLS = below lowest standard.) | BLS (BLS = below lowest standard.) | possess activity | BLS (BLS = below lowest standard.) | 5.9 mU/ml | BLS (BLS = below lowest standard.) | BLS (BLS = below lowest standard.) | BLS (BLS = below lowest standard.) | Aqueous solubility [5]: 2000 µM; Peak Time FVIIa EU (FVIII inhibited plasma; peptide 100 μM): 0.1 nM
